Experimental data published in patent US20220267373A1, “SELF-ASSEMBLING PEPTIDES AND HYDROGELS” (UNIVERSITY OF VIRGINIA PATENT FOUNDATION, priority 2018, published 2022).
Like-named read-outs stand apart in the source and are kept apart here. Where no end group is shown, it is not given here.

How the values were obtained:
[1] = Hydrogel formation (gelation) of peptides dissolved in PBS with pH adjustment; assay type: physicochemical; conditions: for hydrogel formation: dissolved in PBS at pH 7.4 and 1.5 wt %; for gelation as the pH was raised: pH raised from low pH
Procedure: (§1) Lyophilized peptides were dissolved in PBS to a final concentration of 1.5 or 3 wt. %. The pH of the peptide solutions was adjusted by drop-wise addition of minute amounts of HCl or NaOH. Rheological tests were performed on 50 μL hydrogels 30 minutes after induction of gelation (Anton Par, P25S 25 mm parallel steel plates) with a measuring gap of 250 μm. Storage (G′) and loss (G″) moduli were measured as a function of strain (%) ranging from 0.01 to 100% with a constant frequency of 10 rad/s. Frequency sweeps were performed at angular frequencies ranging from 1 to 100 rad/s at 0.1% strain. For recovery experiments, a step-time procedure was utilized with a series of applied strains at a fixed oscillation frequency of 10 rad/s. Initially, samples were applied with 0.01% strain for 100 s followed immediately by a 100% strain for 50 s, and cycled 5 times.
The secondary structural content of pentapeptide specimens was probed by ATR-FTIR spectroscopy. Samples of the pentapeptides of interest were generated via solid-phase peptide synthesis methods. An alanine (Ala) scan of KYFIL was used to assess each AA's contribution to gelation, wherein individual amino acids (AAs) were sequentially exchanged with Ala or Val. Ala and Val were the substituted residues of choice, as they either eliminate a side-chain beyond the Cβ atom (Ala) or otherwise would be expected to minimally alter the main-chain conformation (Val). As uncharged and relatively compact residues, Ala and Val would not be expected to introduce (confounding) electrostatic or steric effects. All pentapeptides were dissolved in phosphate-buffered saline (PBS) at a concentration of 1.5% or 3% (weight/volume) and adjusted to a pH of 7.4. Gelling peptides (solid lines, FIG. 2) display a strong amide I absorbance at ≈1629 cm^−1, arising from vibrational modes of the amide group; these vibrations, in the region of 1700→1600 cm^−1, correspond to stretching of the C═O and C—N bonds, as well as bending of the N—H. This region of the IR spectrum is particularly sensitive to variations in secondary structural conformation and, in the case of our pentapeptide samples, is indicative of β-sheet hydrogen bonding (FIG. 2, FIG. 12, and FIGS. 13A-B). […] This can be inferred because the amide I region of parallel β-sheets harbors a single predominant signature (near 1630 cm^−1), while antiparallel sheets generally feature a second (minor) peak near ≈1680-1690 cm^−1. […] By correlating our IR observations with variations in AA sequence, it appears that amphiphilicity and a capacity for π-system interactions (e.g., π . . . π stacking and π . . . cation interactions with the benzyl side-chain of the central Phe) play a key role in self-assembly and hydrogel formation (FIG. 2).

[2] = Rheology: storage modulus (G') from strain sweeps of peptide hydrogels; assay type: physicochemical; conditions: pH 7.4
Procedure: as §1

[3] = Electron microscopy (TEM, cryo-EM) of nanofiber morphology; assay type: physicochemical; conditions: for typical fiber / ribbon diameter: 1.5 wt % hydrogels at pH 7.4; for nanostructure morphology (TEM): 1.5 wt % in PBS at pH 7.4
Procedure: 3.5 μL of peptide hydrogel was placed on a holey carbon grid (Protochips, Inc.). Three washes of deionized water, and three washes of 2% uranyl acetate staining solutions with 2 s blotting between each step was performed. Samples were analyzed on a Tecnai F20 equipped with a 4 k×4 k UltraScan CCD camera. Pitch and length were determined using Fiji (Schindelin, J. et al., Fiji: an open-source platform for biological-image analysis. Nat Methods 2012, 9 (7), 676-682, herein incorporated by reference in its entirety) and the FiberApp software package (Usov, I.; Mezzenga, R., FiberApp: An Open-Source Software for Tracking and Analyzing Polymers, Filaments, Biomacromolecules, and Fibrous Objects. Macromolecules 2015, 48 (5), 1269-1280, herein incorporated by reference in its entirety) was used to compute autocorrelation functions of intensity profiles.

MADM OPC line = experiment: Hydrogel cell encapsulation and 3D culture (ATP, DNA, live/dead, immunostaining); assay type: cell-based
Procedure: OPCs were cultured in DMEM with high glucose, 4 mM L-glutamine, 1 mM sodium pyruvate (Life Technologies) with N2 and B27 supplement (Life Technologies), 1% penicillin-streptomycin (Life Technologies), 10 ng/mL mouse PDGFA-AA (eBioscience), and 50 ng/mL human NT3 (Peprotech). Cell media was changed every 2 days, and cells were grown to 90% confluency and passaged using 0.25% trypsin in Dulbecco's phosphate buffered saline (PBS). Cells were cultured in 5% CO2 atmosphere, and 21% O2 at 37° C.
Hydrogels for cell encapsulation were made using 1.5 wt % AYFIL peptide in PBS. 25 μL hydrogels with 5×10^6 cells/mL were made by mixing cells and peptides and then transferred to a cell incubator for 10 minutes at 37° C. at 100% humidity. OPC proliferation media was then added to the hydrogels, and changed every 2 days. Hydrogels were stored at −80° C. in lysis buffer before running ATP or DNA quantification assays. For quantification, gels were homogenized in lysis buffer using a hand grinder and were measured using the CellTiter-Glo luminescent Cell Viability Assay (Promega, United States) and the QuantiT PicoGreen dsDNA assay (ThermoFisher) according to manufacturer protocols.
After 2 days of culture, gels were fixed in 4% paraformaldehyde for 20 minutes at 4° C. and rinsed with PBS before permeabilizing overnight with 0.3% triton-X in PBS. Hydrogels were rinsed in PBS, and then incubated with 10 μg/mL stock solution of Alexa Fluor 568 Phalloidin (ThermoFisher) in 1% BSA in PBS overnight. 4′,6-diamidino-2-phenylindole (DAPI) was added to stain cell nuclei during the last 20 minutes of incubation. Gels were then washed 4×20 min in PBS and imaged with a Zeiss LSM 780 confocal microscope. 100 μm z-stack images were collected with a z-spacing distance of 1 μm.

[4] = pH-responsive solubility of nongelling sequences; assay type: physicochemical
[5] = Step-strain recovery / thixotropy test of hydrogel; assay type: physicochemical
Procedure: as §1, with “Initially, samples were applied with 0.01% strain for 100 s followed immediately by a 100% strain for 50 s, and cycled 5 times.” left out

[6] = Apparent viscosity versus shear rate (shear-thinning); assay type: physicochemical
[7] = 1.5 wt. % hydrogel, thixotropy test, 200% strain (200 s), 400 s recovery, FIG. 21 legend

| gelation as the pH was raised [1] | solubility at low pH [4] | behavior as the pH was raised [4] | Substance | hydrogel formation [1] | storage modulus (G') ([2]; 1.5 wt % hydrogel) | typical fiber / ribbon diameter [3] | nanostructure morphology (TEM) [3] | storage modulus (G') ([2]; 3 wt % hydrogel) | other results |
| --- | --- | --- | --- | --- | --- | --- | --- | --- | --- |
|  |  |  | AYFIL-NH2 [AYFIL] | form hydrogels | ~1900 Pa | ≈ 10 nm | twisted fibrils |  | viability and growth of OPCs encapsulated in hydrogel (MADM OPC line): survived and grew; OPC proliferation (increase in DNA concentration) (MADM OPC line; 1.5 wt % hydrogel, 4 days): cells proliferate over the course of 4 days; live/dead staining of encapsulated OPCs (MADM OPC line; 1.5 wt % hydrogel, day 1): majority of cells remained viable; time OPCs remained viable after encapsulation (ATP increase) (MADM OPC line; 96 h): at least 4 days; time of culture to OPC process extension (MADM OPC line; without adhesion peptide sequences or native ECM proteins): ≤ 2 days |
|  |  |  | KAFIL (KAFIL-NH2) [pentapeptide, C-terminally amidated, gels at pH>10] |  |  |  | spherical aggregates | 200 Pa | gelation at high pH ([1]; pH>10): can gel |
| never gelled | soluble | precipitated as an off-white powder | KYAIL-NH2 [KYAIL] |  |  |  |  |  |  |
|  |  |  | KYFAL (KYFAL-NH2) [self-assembling pentapeptide, C-terminally amidated] | form hydrogels |  | ≈ 10 nm | twisted ribbon morphologies, with longer and more infrequent pitch than KYFIL peptides | 133 Pa |  |
| never gelled | soluble | precipitated as an off-white powder | KYFIA-NH2 [KYFIA] |  |  |  |  |  |  |
|  |  |  | KYFIL-CO2H |  |  |  |  |  | hydrogel formation of carboxyl-terminated variant ([1]; pH 7.4): did not readily form hydrogels |
|  |  |  | KYFIL-NH2 [KYFIL] | form hydrogels | 8000 Pa | ≈ 40 nm | twisted ribbon morphologies | 17000 Pa | time to recover 90% of initial G' [5, 7]: 3.5 min; time to recover 96% of initial G' [5, 7]: 7 min; time to recover gel behavior (G'>G'') ([5]; following 100% strain): ≤ 14 s; time to recover 90% of initial G' ([5]; results text (FIG. 21)): 3.4 min; time to recover 96% of initial G' ([5]; results text (FIG. 21)): 7 min; twisted ribbon pitch ([3]; 1.5 wt % hydrogel, pH 7.4, EM): ca. 132 nm; twisted ribbon width ([3]; 1.5 wt % hydrogel, pH 7.4, EM): ca. 40 nm; nanostructure morphology (EM) in nongelling conditions ([3]; 1.5 wt %, pH 4.6): amorphous peptide aggregates; periodicity of the fibrillar twist ([3]; visual analysis and autocorrelation function of pixel intensity, TEM): ~120 nm; viability and growth of OPCs encapsulated in hydrogel (MADM OPC line; 1.5 wt % hydrogel, ATP and DNA concentrations over time): poor cell viability |
| never gelled | soluble | precipitated as an off-white powder | KYFIV-NH2 [KYFIV] |  |  |  |  |  |  |
|  |  |  | RGDKYFIL (RGDKYFIL-NH2) [8-mer peptide containing KYFIL] |  | ~100 Pa |  |  | ~1000 Pa | shear-thinning behavior (apparent viscosity versus shear rate) [6]: displays shear-thinning behavior |
